Where two headings read alike, the source gives them in different places.
What was measured:
[1] = system: MCF-7; experiment: MTT cancer cell proliferation assay, MCF-7; assay type: cell-based, human
Experimental: (§1) In Vitro Determination of Effects of Synthesized Diterpenoids on Cancer Cell Proliferation. Breast cancer cell lines MCF-7, MDA-MB-231, […] and MCF/ADR were seeded in 96-well plates at a density of 1×10^4 cells/well and treated with DMSO and 0.01, 0.1, 1, 5, 10, and 100 μM of individual compound for 48 h, and then 20 μL of 3-(4,5-dimethylthiazol-2-yl)-2,5-diphenyltetrazolium bromide (MTT) (5 mg/mL in PBS) was added to each well and further incubated for another 4 h. Then MTT solution was removed, and 150 μL of DMSO was added to each well. Absorbance of all wells was determined by measuring OD at 550 nm after a 10 min incubation on a 96-well GlowMaxate absorbance reader (Promega, Madison, Wis.). Each individual compound was tested in quadruplicate wells for each concentration.
(§2) The growth inhibitory effects of the newly generated pyran-fused diterpenoids were evaluated in four breast cancer cell lines MCF-7 (ER-positive), MDAMB-231 (ER-negative and triple-negative), MDA-MB-468 (ER-negative and triple-negative) as well as MCF-7/ADR (adriamycin-resistant) using MTT assays as described in the Experimental Section.

[2] = system: MDA-MB-231; experiment: MTT cancer cell proliferation assay, MDA-MB-231; assay type: cell-based, human
Experimental: as §1, §2

[3] = system: MDA-MB-468; experiment: MTT cancer cell proliferation assay, MDA-MB-468; assay type: cell-based, human; settings: Table 3, pyran-fused diterpenoids, MTT 48 h, mean ± SE of three experiments
Experimental: as §1
as §2, with “Section. The capability of these new molecules to inhibit the growth of cancer cells was summarized in Table 3 and compared with that of adriamycin and 1 spontaneously.” for “Section.”

[4] = system: MCF-7/ADR; experiment: MTT growth inhibition, drug-resistant MCF-7/ADR; assay type: cell-based, human; settings: Table 3, adriamycin-resistant, MTT 48 h, mean ± SE of three experiments
Experimental: as §1
as §2, with “Section. The capability of these new molecules to inhibit the growth of cancer cells was summarized in Table 3 and compared with that of adriamycin and 1 spontaneously.” for “Section.”

[5] = system: AsPC1; experiment: Cancer cell proliferation assay, AsPC1; assay type: cell-based; settings: Homo sapiens, ASPC1
Experimental: (§3) In Vitro Determination of Effects of Synthesized Diterpenoids on Cancer Cell Proliferation. […] Then MTT solution was removed, and 150 μL of DMSO was added to each well. Absorbance of all wells was determined by measuring OD at 550 nm after a 10 min incubation on a 96-well GlowMaxate absorbance reader (Promega, Madison, Wis.). Each individual compound was tested in quadruplicate wells for each concentration.

[6] = system: Panc-1; experiment: Cancer cell proliferation assay, Panc-1; assay type: cell-based; settings: Homo sapiens, PANC-1
Experimental: as §3

[7] = system: DU145; experiment: Cancer cell proliferation assay, DU145; assay type: cell-based; settings: Homo sapiens, DU-145
[8] = Homo sapiens, MCF7, 48 h, Table 3, pyran-fused diterpenoids, MTT 48 h, mean ± SE of three experiments, read-out: IC50 (μM) MCF-7
[9] = Homo sapiens, MDA-MB-231, 48 h, Table 3, pyran-fused diterpenoids, MTT 48 h, mean ± SE of three experiments, read-out: IC50 (μM) MDA-MB-231
[10] = Homo sapiens, NCI/ADR-RES, 48 h

Structure (SMILES)	IC50 [1, 8]	IC50 [2, 9]	IC50 ([3]; Homo sapiens, MDA-MB-468, 48 h)	IC50 [4, 10]	further results
C=CCO[C@H]1CCC2=C(O1)[C@@]13CO[C@@]4(OC(C)(C)O[C@@H]5[C@H]6CC[C@@H]1[C@]54C(=O)C6=C)[C@@H](O)[C@@H]3C(C)(C)C2 [CYD-8-66-1]	4.32 ± 1.82 µM	7.12 ± 0.22 µM	4.89 ± 0.85 µM	4.31 ± 2.43 µM	–
C=C1C(=O)[C@@]23[C@@H]4OC(C)(C)O[C@@]25OC[C@]2(C6=C(CC[C@@H](OCC)O6)CC(C)(C)[C@H]2[C@@H]5O)[C@@H]3CC[C@@H]14 [CYD-8-45-1]	–	–	–	–	IC50 ([1]; Table 3, pyran-fused diterpenoids, MTT 48 h, mean ± SE of three experiments, read-out: IC50 (μM) MCF-7): 3.52 ± 2.15 µM; IC50 ([2]; Table 3, pyran-fused diterpenoids, MTT 48 h, mean ± SE of three experiments, read-out: IC50 (μM) MDA-MB-231): 6.13 ± 2.43 µM; IC50 [3]: 5.4 ± 0.98 µM; IC50 [4]: 4.65 ± 3.15 µM
C=C1C(=O)[C@@]23[C@@H]4OC(C)(C)O[C@@]25OC[C@]2(C6=C(C[C@H]7CCCO[C@H]7O6)CC(C)(C)[C@H]2[C@@H]5O)[C@@H]3CC[C@@H]14 [CYD-8-74-2]	2.39 ± 0.78 µM	2.53 ± 0.77 µM	3.33 ± 0.58 µM	2.89 ± 0.32 µM	–
C=C1C(=O)[C@@]23[C@@H]4OC(C)(C)O[C@@]25OC[C@]2(C6=C(CC[C@@H](OCCCl)O6)CC(C)(C)[C@H]2[C@@H]5O)[C@@H]3CC[C@@H]14 [CYD-8-65-2]	6.76 ± 3.43 µM	7.15 ± 1.27 µM	7.26 ± 0.23 µM	8.74 ± 0.27 µM	–
C=C1C(=O)[C@]23[C@H](O)[C@H]1CC[C@H]2[C@@]12CO[C@]3(O)[C@@H](O)[C@@H]1C(C)(C)Cc1sc(N)nc12 [CYD-5-41, (5aR,6S,7S,7aR,10S,12aS,12bR,15R)-2-amino-6,7,15-trihydroxy-5,5-dimethyl-9-methylene-5,5a,6,7,10,11,12,12a-octahydro-4H-7,12b-(epoxymethano)-7a,10-methanocyclohepta[7,8]naphtho[1,2-d]thiazol-8(9H)-one]	–	–	–	–	IC50 ([1]; Homo sapiens, MCF7, Table 1a, breast cancer, read-out: IC50 (μM) MCF-7): 1.02 µM; IC50 ([1]; Homo sapiens, MCF7, Table 2b, mean of at least three experiments, read-out: Effect on proliferation MCF-7 (ER positive) (IC50)): 1 µM; IC50 ([2]; Homo sapiens, MDA-MB-231, Table 1a, breast cancer, read-out: IC50 (μM) MDA-MB-231): 3.24 µM; IC50 ([2]; Homo sapiens, MDA-MB-231, Table 2b, mean of at least three experiments, read-out: Effect on proliferation MDA-MB-231 (ER negative) (IC50)): 3.2 µM; IC50 ([5]; Table 1a, pancreatic cancer, read-out: IC50 (μM) AsPC1): 5.58 µM; IC50 ([5]; Table 2b, mean of at least three experiments, read-out: Effect on proliferation AsPC1 (IC50)): 5.6 µM; IC50 ([6]; Table 1a, pancreatic cancer, read-out: IC50 (μM) Panc-1): 6.13 µM; IC50 ([6]; Table 2b, mean of at least three experiments, read-out: Effect on proliferation Panc-1 (IC50)): 6.1 µM; IC50 ([7]; Table 1a, prostate cancer, read-out: IC50 (μM) DU145): 3.46 µM; IC50 ([7]; Table 2b, mean of at least three experiments, read-out: Effect on proliferation DU145 (IC50)): 3.5 µM

Now from value to compound, other results behind:

IC50 [1, 8]	IC50 [2, 9]	IC50 ([3]; Homo sapiens, MDA-MB-468, 48 h)	IC50 [4, 10]	Structure (SMILES)	further results
2.1 ± 0.98 µM	3.3 ± 0.23 µM	4.37 ± 1.48 µM	3.19 ± 0.54 µM	C=CCO[C@@H]1CCC2=C(O1)[C@@]13CO[C@@]4(OC(C)(C)O[C@@H]5[C@H]6CC[C@@H]1[C@]54C(=O)C6=C)[C@@H](O)[C@@H]3C(C)(C)C2 [CYD-8-66-2]	–
2.24 ± 1.33 µM	1.76 ± 0.22 µM	2.62 ± 0.08 µM	4.42 ± 0.9 µM	C=C1C(=O)[C@@]23[C@@H]4OC(C)(C)O[C@@]25OC[C@]2(C6=C(CC[C@H](OCC(C)C)O6)CC(C)(C)[C@H]2[C@@H]5O)[C@@H]3CC[C@@H]14 [CYD-8-52-1]	–
0.67 ± 0.45 µM	2.33 ± 0.22 µM	0.65 ± 0.26 µM	> 10 µM	COc1cccc2c1C(=O)c1c(O)c3c(c(O)c1C2=O)C[C@@](O)(C(=O)CO)C[C@@H]3O[C@H]1C[C@H](N)[C@H](O)[C@H](C)O1 [Adriamycin, reference compound]	–
1.9 ± 0.97 µM	3.32 ± 1.01 µM	2.24 ± 0.68 µM	3.18 ± 0.89 µM	C=C1C(=O)[C@]23[C@H](O)[C@H]1CC[C@H]2[C@@]12CO[C@@]3(O)[C@@H](O)[C@@H]1C(C)(C)CC1=C2O[C@@H](OCC)CC1 [CYD-8-50]	–
